Here are results for nine compounds from US4285956A, “Xanthene and thioxanthene derivatives, compositions thereof and treatment therewith” (priority 1978, dated 1981).

Usually ED50 stands for the dose at which the effect has come halfway, by size or by number of responders. By LD50 is commonly meant the dose at which mortality reaches 50%.

Series [1] can be described thus: Methylphenidate antagonism (mice biting corrugated paper). As to conditions: Mus musculus, ip. It counts as in vivo. The method, then:
Methylphenidate antagonism (ED50 mg/kg i.p.)
Perspex observation cages without bottom and lid, consisting of 5 sections each measuring 12×25×30 cm. White corrugated paper. Mice, male, 18-25 g.
The test substance is given i.p. in the doses 0, 1/8, 1/32 and 1/128 of the determined "i.p. LD50". 3×2 mice are used for each dose level. Two or 24 hours after injection of test substance, methylphenidate, 60 mg/kg, is injected s.c. After administration of methylphenidate the mice are placed in the observation cages, 2 in each cage, where they remain for exactly 1 hour. The cages are placed on corrugated paper, the corrugations facing upwards. It is examined whether the mice have been biting the corrugated paper or not. […] If one or more of the control pairs have not been biting, the test has to be repeated on a new set of mice.
The result is stated in fractions: 0/3, 1/3, 2/3 and 3/3 where 0, 1, 2 and 3 are the number of pairs which have not been biting on receipt of the dose in question.
The results are calculated as the dose (ED50), which causes antagonism in 50% of the test animals.

A short description of series [2]: Amphetamine antagonism (stereotypy in rats). It counts as in vivo. The settings on record: Rattus norvegicus.
A short description of series [3]: Neuroleptic effect: duration and strength (remarks of Table 2). It counts as in vivo. As to conditions: for Duration (remarks, words): duration of neuroleptic effect; for Duration (remarks, words) / Strength of effect (remarks, words): in words; for Strength of effect (remarks, words): strength of neuroleptic effect. The text has this: The pharmacological testing of the novel xanthones and thioxanthenes of Formula I consisted of standard and reliable tests. […]

Series [4] can be described thus: Catalepsy wire mesh, rat, max. Format: in vivo. As to conditions: po, rats.
Series [5] in a line: Catalepsy wire mesh, rat, max. It counts as in vivo, rats. The settings on record: for ED50: Rattus norvegicus, sc, read-out: Catalepsy wire mesh, rat, max. ED50. The method, then: Catalepsy wire mesh, rat, max. (ED50 mg/kg s.c.)
A vertical wire netting (50 cm×49 cm). The meshes (openings) of the netting are square (1 cm×1 cm). The wire diameter is 2 mm. Stop watch. Rats, male, 180-200 g.
The animals are labeled and used in groups of five. The test substance is injected subcutaneously (s.c.) (5 ml/kg) at 4 dose levels selected from the fixed dose scale.
The animals are placed in the middle of the vertical wire netting 60, 120, 180, 240, 300 and 360 minutes after injection of the test compound. The animals are considered cataleptic when they remain immobile during a period of 15 seconds. This cataleptic reaction is designated +. If the rats are "atonic" and passively slide down the wire mesh they are considered not cataleptic. If the animals climb up and down the wire mesh they are nor cataleptic. In both situations the designation - is used.

Series [6] can be described thus: Acute toxicity, LD50 in male rats following peroral administration. Format: in vivo. As to conditions: for LD50 at 168 h: rat, in vivo, po, male rats, p.o., one week after administration, read-out: LD50 p.o. in male rats after 1 week. The method, then: The acute toxicity, as measured by LD50 in male rats following peroral administration, is much lower for Lu 13-135 when compared with piflutixol one week after administration. The figure for Lu 13-135 is >60 mg/kg against 1.5 mg/kg for piflutixol.

The nature of the next series: Sedation. As to conditions: in words; for b551 compared with piflutixol.
The mark [7] stands for this setting: mice, i.p., methylphenidate 60 mg/kg s.c. 2 h after test substance, read-out: Methylphenidate antagonism ED50, 2 h.
Where [8] appears, read: mice, i.p., methylphenidate 60 mg/kg s.c. 24 h after test substance, read-out: Methylphenidate antagonism ED50, 24 h.
The mark [9] stands for this setting: po, read-out: Amphetamine antagonism ED50, p.o.
Setting [10] is: 2 h, read-out: Methylphenidate antagonism ED50, 2 h.
Where [11] appears, read: 24 h, read-out: Methylphenidate antagonism ED50, 24 h.
Where [12] appears, read: ip, 24 h, read-out: Amphetamine antagonism ED50.
[13] abbreviates: rats, s.c., strongest effect within first 6 hours.

Entries after “also recorded” stand apart in the source; their conditions may differ. Where only a bound is given, the exact number is not on record here.

Regarding `CS(=O)(=O)N[C@H]1CC[C@H](CN2CCC(=C3c4ccc(F)cc4Sc4ccc(C(F)(F)F)cc43)CC2)CC1` [Lu 16-049], the ED50 in series [1] (setting [7]) stood at 1 mg/kg; in series [1] (setting [8]), 0.49 mg/kg; in series [2] (setting [9]), 2.5 mg/kg; in series [4], 1.7 mg/kg. Moreover, in series [3], the “Duration (remarks, words)” value is “long acting”. Besides, the “Strength of effect (remarks, words)” value in series [3] is listed as “moderately strong”.
On to `OCCC1CCN(CC/C=C2/c3ccc(F)cc3Sc3ccc(C(F)(F)F)cc32)CC1` [piflutixol, 2-trifluoromethyl-6-fluoro-9-(3-(4-(2-hydroxyethyl)-1-piperidyl)propylidene)-thioxanthene, reference compound], for which the ED50 in series [1] (setting [10]) was 0.03 mg/kg; in series [1] (setting [11]) it was 0.03 mg/kg; in series [5] (6 h), 0.05 mg/kg. Also, the “Duration (remarks, words)” value in series [3] was “most long acting”. In series [3] (remarks column, hours), this compound returned a Duration of 48 to 72 h. Besides, the “Strength of effect (remarks, words)” value in series [3] is “most patent”. For the same compound, in series [6], the LD50 at 168 h was determined as 1.5 mg/kg. Besides, the “Sedation / sedative effect” value in “Sedation” is recorded as “very strong sedative effects”.
As for `O[C@H]1CC[C@H](CN2CCC(=C3c4ccc(F)cc4Sc4ccc(C(F)(F)F)cc43)CC2)CC1` [Lu 13-135, 1-(trans-4-hydroxycyclohexylmethyl)-4-(2-trifluoromethyl-6-fluoro-9-thioxanthenyliden)-piperidine], the 50% effective dose (ED50) was 0.32 mg/kg in series [1] (setting [7]), 0.19 mg/kg in series [1] (setting [8]), 0.32 mg/kg in series [2] (setting [12]) and 0.4 mg/kg in series [5] (setting [13]). Moreover, the “Cataleptic activity” value in series [5] (in words) is “have a cataleptic activity”. The “Duration (remarks, words)” value in series [3] is recorded as “very long acting; also recorded: long acting”. Moreover, in series [3], the “Strength of effect (remarks, words)” value is on record as “strong; also recorded: very strong”. In series [6] (in words, compared with related thioxanthenes (b9) or piflutixol), the “Acute toxicity” value is given as “much lower”. Besides, in series [6], the LD50 at 168 h is greater than 60 mg/kg.
For `O=C1NCCN1CCN1CCC(=C2c3ccccc3Sc3ccc(Cl)cc32)CC1` [Lu 16-105], the ED50 in series [1] (setting [7]) is 0.16 mg/kg; in series [1] (setting [8]), 28 mg/kg; in series [2] (setting [12]), 1.2 mg/kg; in series [5] (setting [13]) it was 0.38 mg/kg. The “Duration (remarks, words)” value in series [3] is “short acting”. For the same compound, in series [3], the “Strength of effect (remarks, words)” value is “strong”.
Regarding `O[C@H]1CC[C@@H](CN2CCC(=C3c4ccc(F)cc4Sc4ccc(C(F)(F)F)cc43)CC2)CC1` [Lu 15-013, 1-(cis-4-hydroxycyclohexylmethyl)-4-(2-trifluoromethyl-6-fluoro-9-thioxanthenylidene)piperidene], the 50% effective dose (ED50) in series [1] (setting [7]) stood at 0.63 mg/kg; in series [1] (setting [8]) it was 0.1 mg/kg; in series [2] (setting [12]), 0.76 mg/kg; in series [5] (setting [13]) it was 1.2 mg/kg. Moreover, in series [3], the “Duration (remarks, words)” value is on record as “long acting”. Further, the “Strength of effect (remarks, words)” value in series [3] was “strong”.
Regarding `O=C1CCC(CN2CCC(=C3c4ccc(F)cc4Sc4ccc(C(F)(F)F)cc43)CC2)CC1` [Lu 16-088], the ED50 came out at 0.77 mg/kg in series [1] (setting [7]), 0.06 mg/kg in series [1] (setting [8]), 0.3 mg/kg in series [2] (setting [9]) and 0.81 mg/kg in series [5] (setting [13]). Besides, the “Duration (remarks, words)” value in series [3] is reported as “long acting”. Also, the “Strength of effect (remarks, words)” value in series [3] is given as “strong”.
As for `OCCN1CCN(CCCN2c3ccccc3Sc3ccc(C(F)(F)F)cc32)CC1` [fluphenazine, reference compound], the ED50 in series [1] (setting [10]) stood at 0.04 mg/kg; in series [1] (setting [11]), 3.6 mg/kg; in series [2] (setting [12]), 0.08 mg/kg; in series [5] (setting [13]), 0.099 mg/kg. Also, the “Duration (remarks, words)” value in series [3] is “short acting”. Besides, in series [3], the “Strength of effect (remarks, words)” value is listed as “very strong”.
For the compound `CN(C)CC/C=C1/c2ccccc2Sc2ccc(Cl)cc21` [chlorprothixene, reference compound], the ED50 was 0.71 mg/kg in series [1] (setting [10]), greater than 20 mg/kg in series [1] (setting [11]), 6.1 mg/kg in series [2] (setting [12]) and 4 mg/kg in series [5] (setting [13]). In series [3], the “Duration (remarks, words)” value was “short acting”. Further, the “Strength of effect (remarks, words)” value in series [3] is “moderately strong”.
Consider `COc1ccc2c(c1)C(=C1CCN(C[C@H]3CC[C@H](O)CC3)CC1)c1ccc(F)cc1S2` [Lu 16-052, 1-(trans-4-hydroxycyclohexylmethyl)-4-(2-methoxy-6-fluoro-9-thioxanthenylidene)-piperidine], for which the ED50 came out at 0.31 mg/kg in series [1] (setting [7]), 29 mg/kg in series [1] (setting [8]), 0.56 mg/kg in series [2] (setting [12]) and 0.23 mg/kg in series [5] (setting [13]). In series [3], the “Duration (remarks, words)” value is on record as “short acting”. The “Strength of effect (remarks, words)” value in series [3] is reported as “moderately strong”.
